The source of these data is US7262289B2, “KCNQ potassium channels and methods of modulating same” (Bristol-Myers Squibb Co., priority 1997, dated 2007).

In one test the target is T1, KCNQ2+KCNQ3 (Homo sapiens, UniProt O43525+O43526, DEL509-509/N780T).
T1 construct: The full-length cDNAs were subcloned into a Xenopus expression vector, derived from pSP64T plasmid; expressed in transfected cells; host or cells: Xenopus laevis oocytes (co-injection of cRNAs)
The format is cell-based. As to the method:
FIGS. 19A-19F show co-expression of KCNQ2 and KCNQ3. […] Currents were recorded using the protocol in FIGS. 19A-19C. […] The dashed line has a slope predicted by the Nernst equation for a perfectly selective K^+ channel. Each value is the mean±SEM from 6 oocytes. […] Superimposed currents were recorded during 1 sec steps to +20 mV, from […], during the same experiment. Compounds were applied via bath perfusion in order from top to bottom.
(§1) Stage V and VI Xenopus laevis oocytes were defolliculated with collagenase treatment and injected with cRNAs, as described in Yang et al., supra. Currents were recorded at room temperature using the two-microelectrode voltage clamp (Dagan TEV-200) technique between 3-5 days after injection of KCNQ2 (15 ng), KCNQ3 (15 ng), or KCNE1 (2 ng) cRNA alone or in combination. Microelectrodes (0.8 to 1.5 MΩ) were filled with 3 M KCl . Bath solution contained (in mM): 96 NaCl, 2 KCl , 0.4-1.8 CaCl2, 1-2 MgCl2 and 5 HEPES (pH 7.5). KCl was varied in some experiments by equimolar substitution with NaCl.
(§2) Axoclamp (Axon Instruments) was used for generating voltage clamp commands and acquiring data and Axograph 3.0 (Axon Instruments) was used for data analysis. All data was sampled at rates at least two times the low pass filter rate. Experiments were performed at 22-25° C.

The target of test [1] is T2, KCNQ1/KvLQT1 (Homo sapiens, UniProt P51787). The note with it: from Yang et al. (1997); cited from earlier work.
For another test, the target named is T3, human KCNQ2/KvLR1 (Homo sapiens, UniProt O43526, DEL509-509/N780T).
T3 construct: The full-length human KCNQ2 and KCNQ3 cDNAs were subcloned into a Xenopus expression vector and cRNA was generated by in vitro transcription; expressed in transfected cells; host or cells: Xenopus laevis oocytes (cRNA injection)
Format: cell-based. The procedure:
Superimposed currents were recorded during 1 second steps to +30 mV, from −80 mV, during the same experiment. Compounds were applied via bath perfusion in order from top to bottom. The bath was perfused with control solution for 5 minutes, or until effects reversed completely, between compounds.
Inhibitors of various potassium channels present in brain and other tissues were used to investigate the pharmacology of KCNQ2/KvLR1.
as §1, §2

Another test concerns the target T4, KCNQ3 (Homo sapiens, UniProt O43525).
T4 construct: The full-length human KCNQ2 and KCNQ3 cDNAs were subcloned into a Xenopus expression vector and cRNA was generated by in vitro transcription; expressed in transfected cells; host or cells: Xenopus laevis oocytes (cRNA injection)
Format: cell-based. The procedure: FIGS. 18A-18D show the functional characterization of KCNQ3 currents. […] Currents were recorded using the protocol in FIG. 18A. […] Each value is the mean±SEM from 6 oocytes. […] Superimposed currents were recorded during 1 sec steps to +20 mV, from −80 mV, during the same experiment. Compounds were applied via bath perfusion in order from top to bottom. The bath was perfused with control solution for 5 min, or until effects reversed completely, between compounds.
as §1, §2

Another test addresses T5, murine KCNQ2/KvLR1 (Mus musculus, UniProt Q9Z351, DEL481-481/H600Q/P326Q).
T5 construct: Also disclosed is a full-length murine cDNA clone of KCNQ2 (murine KvLR1); expressed in transfected cells; host or cells: Xenopus oocytes (cRNA injection)
Nature of the test: murine KCNQ2/KvLR1-mediated whole-cell currents in Xenopus oocytes, 2-electrode voltage clamp. The format is cell-based. The following applies: for effect on murine KCNQ2-mediated currents: concentration not given. As to the method:
FIGS. 15A and 15B show electrophysiology characterization of mouse KCNQ2/KvLR1-mediated whole-cell currents expressed in Xenopus oocytes.
To test for functional expression, cRNA was prepared from the murine KCNQ2/KvLR1 gene and injected into Xenopus oocytes. In a two-electrode voltage clamp, a family of outward currents were generated in murine KCNQ2/KvLR1 cRNA-injected oocytes (n>20). After a minimum of 48 hours, currents qualitatively and quantitatively different than native currents generated with identical protocols in water injected or uninjected control cells (representing Ca^2+-activated chloride currents and other native currents) (FIG. 15). […] Similar currents were obtained from CHO cells stably expressing murine KCNQ2 and recorded using patch-clamp techniques. Single channel conductances were estimated to be 24-30 pS in symmetrical 140 mM potassium. (FIG. 22).
The murine KCNQ2/KvLR1 cDNAs were linearized with the restriction enzyme NotI and in vitro transcribed using the mMessage mMachine T7 RNA polymerase kit according to the manufacturer's instructions (Ambion, Austin, Tex.). The cRNAs were solubilized in RNase-free water, and stored at −70° C. at a concentration of 1.0 μg/μl. Frog oocytes were prepared and injected using standard techniques (Colman, 1984). In murine KvLR1 expression experiments, each oocyte was injected with approximately 35-40 nl of the cRNA. Following injection, oocytes were maintained at 17° C., in ND96 medium consisting of (in mM): NaCl, 90; KCl, 1.0; CaCl2, 1.0; MgCl2, 1.0; HEPES, 5.0; pH 7.5. Horse serum and penicillin/streptomycin, both 5% of final volume, were added as supplements to the incubation medium. Electrophysiological recording commenced 2-6 days following cRNA injection. Prior to the start of an experiment oocytes were placed in a recording chamber and incubated in Modified Barth's Solution (MBS) consisting of (in mM): NaCl, 88; NaHCO3, 2.4; KCl, 1.0; HEPES, 10; MgSO4, 0.82; Ca(NO3)2, 0.33; CaCl2, 0.41; pH 7.5. Oocytes were impaled with electrodes (1-2 MΩ) and standard 2-electrode voltage clamp techniques were employed to record whole-cell membrane currents (Stuhmer, 1992; TEC 200, Dagan Instruments). Voltage-clamp protocols typically consisted of a series of voltage steps 100-500 ms duration, in +10 mV steps from a holding potential of −60 mV to −90 mV to a maximal potential of +40 mV to +50 mV; records were digitized at 5 kHz and stored on a computer using pClamp 6.0 software (Axon Instruments), and analyzed using ClampFit or AxoGraph software (Axon Instruments).

The target of another test is minK+human KCNQ2/KvLR1 (Homo sapiens, UniProt O43526). The note with it: 1 mM, steps to +40 mV from −80 mV. As to the method: as §1
For test [2], the target named is T2, KCNQ1/KvLQT1. The test is described as follows: KCNQ1/KvLQT1 currents (comparison). Format: cell-based. The note with it: no citation, concentration not given.
Setting [3] is: 10 μM, steps to +30 mV from −80 mV.

Where two headings read alike, the source gives them in different places.

minK+human KCNQ2/KvLR1, sequence (O43526 whole entry): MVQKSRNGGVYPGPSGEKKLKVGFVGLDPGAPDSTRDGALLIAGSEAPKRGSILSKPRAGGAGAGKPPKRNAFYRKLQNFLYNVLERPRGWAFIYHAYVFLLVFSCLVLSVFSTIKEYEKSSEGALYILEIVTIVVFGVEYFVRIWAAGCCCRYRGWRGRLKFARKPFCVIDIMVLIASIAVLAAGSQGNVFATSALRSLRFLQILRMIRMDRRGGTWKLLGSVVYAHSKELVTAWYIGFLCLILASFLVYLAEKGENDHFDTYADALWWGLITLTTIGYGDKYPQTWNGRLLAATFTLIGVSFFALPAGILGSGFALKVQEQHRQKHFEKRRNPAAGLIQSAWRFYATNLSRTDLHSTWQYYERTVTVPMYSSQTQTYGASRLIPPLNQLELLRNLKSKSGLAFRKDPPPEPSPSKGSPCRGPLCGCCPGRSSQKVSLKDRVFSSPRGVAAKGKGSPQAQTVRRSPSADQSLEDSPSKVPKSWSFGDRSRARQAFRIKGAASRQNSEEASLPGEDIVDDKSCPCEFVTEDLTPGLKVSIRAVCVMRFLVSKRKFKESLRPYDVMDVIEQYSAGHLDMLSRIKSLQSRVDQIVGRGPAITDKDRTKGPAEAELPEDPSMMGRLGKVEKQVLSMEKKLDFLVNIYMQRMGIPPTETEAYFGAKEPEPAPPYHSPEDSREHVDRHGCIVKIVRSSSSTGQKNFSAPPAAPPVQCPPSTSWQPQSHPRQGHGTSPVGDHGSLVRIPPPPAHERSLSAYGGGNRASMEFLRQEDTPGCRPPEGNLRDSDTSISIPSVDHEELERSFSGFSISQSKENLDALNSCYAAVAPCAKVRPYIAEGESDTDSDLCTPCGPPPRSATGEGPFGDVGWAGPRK

With `Nc1ccncc1` [4-AP, 4-aminopyridine], the “sensitivity of KCNQ2+KCNQ3 current to inhibition” value (shortened to “sensitivity … to inhibition”) on KCNQ2+KCNQ3 (2 mM) is recorded as “not”. Also, the “inhibition of KCNQ1/KvLQT1 currents” value at KCNQ1/KvLQT1 [1] is recorded as “do not inhibit”. For the same molecule, the “effect on KCNQ2/KvLR1 current” value at human KCNQ2/KvLR1 (0.2 mM) is on record as “Neither E-4031 nor 4-AP produced significant effects”. Moreover, the “effect on KCNQ3 current” value on KCNQ3 (2 mM) is given as “no effect”.

For the molecule `Cc1cccc(CCN2CCC(C(=O)c3ccc(NS(C)(=O)=O)cc3)CC2)n1` [E-4031], the “sensitivity … to inhibition” value at KCNQ2+KCNQ3 (10 μM) is reported as “did not inhibit”. At KCNQ1/KvLQT1 [1], the “inhibition of KCNQ1/KvLQT1 currents” value is recorded as “do not inhibit”. At human KCNQ2/KvLR1 (setting [3]), the “effect on KCNQ2/KvLR1 current” value was “Neither E-4031 nor 4-AP produced significant effects”. Further, the “effect on KCNQ3 current” value at KCNQ3 (10 μM) is reported as “no effect”.

Take `CC[N+](CC)(CC)CC` [TEA, tetraethylammonium]: the “sensitivity … to inhibition” value at KCNQ2+KCNQ3 is given as “weakly sensitive to inhibition”. The “block of murine KCNQ2/KvLR1-mediated currents” value at murine KCNQ2/KvLR1 was “blocked”. For the same molecule, the “effect on minK+human KCNQ2/KvLR1 currents” value on minK+human KCNQ2/KvLR1 was “partially inhibited”. Moreover, the “effect on KCNQ2 current” value at human KCNQ2/KvLR1 is on record as “strongly inhibited”. For the same molecule, the “effect on KCNQ3 current” value at KCNQ3 is given as “little inhibition”.

As to `CCCCCCC[N+](CC)(CC)CCCCc1ccc(Cl)cc1` [clofilium], the “sensitivity … to inhibition” value at KCNQ2+KCNQ3 (10 μM) is given as “weakly sensitive to inhibition”. On KCNQ1/KvLQT1 [1], the “inhibition of KCNQ1/KvLQT1 currents” value is recorded as “strong inhibitor”. Further, the “block of murine KCNQ2-mediated currents” value at murine KCNQ2/KvLR1 (20 μM, depolarized from −80 to +40) was “partially block”. Besides, the “effect on KCNQ2/KvLR1 current” value at human KCNQ2/KvLR1 (setting [3]) is given as “little effect”. For the same molecule, the “reduction of KCNQ3 current from control” value at KCNQ3 (10 μM) is listed as 30%.

With Charybdotoxin, in the test with KCNQ2+KCNQ3 (100 nM), the “sensitivity … to inhibition” value is listed as “not”. Further, the “effect on murine KCNQ2-mediated currents” value with murine KCNQ2/KvLR1 is recorded as “no significant effect”. In addition, the “effect on KCNQ2/KvLR1 current” value with human KCNQ2/KvLR1 (0.1 mM (concentration tested)) was “did not inhibit”. Besides, the “effect on KCNQ3 current” value in the test with KCNQ3 (100 nM) is on record as “no effect”. In addition, the “effect on KCNQ1/KvLQT1” value in the test with KCNQ1/KvLQT1 [2] was “no effect”.

As to “iberiotoxin: specific K+ channel blocking toxin (QFTDVDCSVSKECWSVCKDLFGVDRGKCMGKKCRCYQ)”, the “effect on murine KCNQ2-mediated currents” value in the test with murine KCNQ2/KvLR1 is listed as “no significant effect”.

Turning to “α-dendrotoxin (QPRRKLCILHRNPGRCYDKIPAFYYNQKKKQCERFDWSGCGGNSNRFKTIEECRRTCIG)”, the “effect on murine KCNQ2-mediated currents” value with murine KCNQ2/KvLR1 was “no significant effect”.
